Experimental data taken from a melting point compilation (Tetko et al.; mined from patent text by program, amines drawn as free bases though some values may be those of a salt).

Row | SMILES | melting point [°C]
1 | COc1cc(-c2cn(-c3cccc(OCCn4ccnc4)c3)c3ncnc(N)c23)ccc1OCc1ccccc1 | 122 to 124
2 | COC(=O)c1c(CC(C)C)nc2ccc(Cl)cc2c1-c1ccccc1 | 111 to 112
3 | CCc1c(C)cccc1C(=O)NC1CN2CCC1CC2 (racemic) | 125
4 | N=C(NCc1cccnc1)N[N+](=O)[O-] | 185 to 190
5 | Cc1nc(N)c2nc(O)n(Cc3cc(-c4ccc(F)cc4)no3)c2c1C | 250
6 | Cn1c(=O)[nH]c(=O)c2c1ncn2CC(C)(C)O | 268 to 269
7 | CC1=NS(=O)(=O)N(C)C(Cl)=N1 | 86 to 90
8 | Cc1cc(COc2c(Cl)cc(CSc3ccc4ccccc4c3)cc2Cl)oc(=O)c1 | 125
9 | CS(=O)(=O)c1ccccc1S(N)(=O)=O | 249 to 250
10 | CCc1nc2c(cnn2CC)c(NC2CCOCC2)c1CNC(=O)c1cccc(C(=O)NCc2cc(Cl)cc(-c3cccc(CN4CCCN(C)CC4)c3)c2)c1 | 111 to 113
11 | O=C1NC(=O)C2=C1c1c([nH]c3ccccc13)Cc1[nH]c3ccccc3c12 | > 350
12 | CSc1cc(C(C)C)c(NC(=O)C2c3ccccc3COc3ccc(Br)cc32)c(C(C)C)c1 (stereo not drawn) | 171 to 172
13 | COc1ccc(C2(C#Cc3cnc(N)nc3)CCC(O)CC2)cc1OC1CCCC1 (stereo not drawn) | 170 to 172
14 | COc1cccc(CC(=NO)c2ccccc2)c1 | 72 to 73
15 | NC1(C2CCN(c3c(F)cc4c(=O)[nH]c(=O)n(C5CC5)c4c3OC(F)F)C2)CC1 (stereo not drawn) | 210 to 214
16 | O=C(O)C#Cc1c(Cl)cc(Cl)cc1Cl | 170 to 175
17 | CC(=O)O[C@@H]1[C@H](OC(C)=O)[C@@H](C)O[C@H]1n1c(Br)nc2c(Cl)c(Cl)c(Cl)cc21 | 160 to 162
18 | NC(=O)c1cccc2c1[nH]c1c3cc(Br)ccc3oc21 | 300 to 301
19 | Nc1cc(CO)cc(Nc2c3ccccc3nc3occc23)c1 | 236 to 237
20 | CC#CCOc1ccc(S(=O)(=O)NC(C(=O)NO)c2ccc(OCCN3CCN(C(=O)OC(C)(C)C)CC3)cc2)cc1 (stereo not drawn) | 92 to 95
21 | O=C(O)COc1ccc(Nc2nccc(-c3ccncc3)n2)cc1 | 308 to 310
22 | CC(=O)OC1(C(C)CN(C)C)CCCCC1c1ccccc1 (single isomer, unassigned; (-)) | 63 to 66
23 | O=C(NC(Cc1ccc(OCc2ccc(F)cc2)cc1)C(=O)O)c1cc2cc(-c3ccc(Cl)cc3)ccc2s1 (stereo not drawn) | 189 to 190
24 | CC(C)CC(NC(=O)C(CS)CC(F)(F)F)C(=O)O (stereo not drawn) | 78 to 81
25 | CC(Cc1cccc(O)c1)NCCC(c1ccccc1)c1ccccc1 (stereo not drawn) | 122 to 124

Row | SMILES | melting point [°C]
26 | COc1ccc(NC(=O)c2ccc(F)c(F)c2)cc1NS(=O)(=O)c1ccc([N+](=O)[O-])cc1 | 231 to 249
27 | N#Cc1cccn1-c1ccc(CN2C(=O)c3ccccc3C2=O)cc1 | 167 to 168
28 | N#Cc1ccc(-c2c[nH]cn2)cc1 | 164 to 167
29 | N#CN=C(NCCO)NCc1ccc(-c2csc(N=C(N)N)n2)o1 | 208 to 209
30 | COC(=O)C1=C(C)NC(CC(=O)N2CCN(C3CC4CCC(C3)N4Cc3ccccc3OC)CC2)=C(C(=O)OC)C1c1c(Cl)cccc1Cl (stereo not drawn) | 205 to 213
31 | Cc1cc(-c2cn[nH]c2N)ccn1 | 230
32 | CC(C)(S)CNCc1ccc(O)cc1 | 85 to 87
33 | Nc1ccccc1NCCCCCCCCCCCCNc1ccccc1N | 85 to 88
34 | COc1ccc(S(=O)(=O)Nc2nc(-c3cccc([N+](=O)[O-])c3)cs2)cc1OC | 185
35 | Cc1c(F)c(N)nc(-n2cc(C(=O)O)c(=O)c3cc(F)c(F)c(Cl)c32)c1F | 253 to 257
36 | COC(=O)[C@H](CO)NC(=O)c1ncn2c1CN(C)C(=O)c1ccccc1-2 | 180 to 181
37 | O=C(NCc1c[nH]c(-c2cc3nc(C(=O)O)c(=O)[nH]c3cc2[N+](=O)[O-])n1)Nc1ccccc1F | 300
38 | CC(C)Oc1cc(-n2c(Cl)nc(C(F)(F)F)cc2=O)c(F)cc1Cl | 88 to 90
39 | O=[N+]([O-])c1cccc(CO)c1I | 91 to 91.5
40 | O[C@H](COc1ccccc1C=Cc1nc2ccccc2s1)CN1CCC(c2ccc3ccccc3c2)CC1 | 125 to 127
41 | Nc1nc2c(ncn2CCC(COCc2ccccc2)COCc2ccccc2)c(=O)[nH]1 | 210 to 224
42 | c1ccc(C(c2ccccc2)N2CC2)cc1 | 56 to 58
43 | Cc1cc(C)c2c(c1C)OC(C)(C)C2c1ccc(F)cc1 (stereo not drawn) | 109 to 110
44 | C1=Nc2ccccc2OC1 | 126 to 129
45 | O=C(O)Cn1cc(C2(O)CCCC2)nn1 | 124 to 126
46 | Cc1c(S(=O)c2cc(Cl)c(Cl)cc2Cl)cc(C(C)(C)C)c(O)c1C(=O)Nc1ccc([N+](=O)[O-])cc1C(F)(F)F (stereo not drawn) | 234 to 235
47 | CC1(C)C(NN)=Nc2ccccc2C1(O)c1ccccc1 (stereo not drawn) | 195 to 196
48 | O=C(NCc1ccccc1OC(F)(F)F)[C@@H]1CCCN(c2cccc3c2C(=O)N(Cc2ccncc2)C3=O)C1 | 197 to 198
49 | N#Cc1nc(NC2CCCCC2)c2ncn(CCn3ccnc3)c2n1 | 115 to 117
50 | C[Si](C)(C)c1ccc(-c2ccc(I)cc2F)c(F)c1F | 76

Continued, values first:

Row | melting point [°C] | SMILES
51 | 178 to 179 | O=C(/C=C/c1cccc(-c2cccc([N+](=O)[O-])c2)c1)Nc1ccc(CN2CCCCC2)cc1
52 | 239 to 240 | Cc1cc2c(c(O)c1O)C(=O)c1c(O)cccc1C2=O
53 | 135 to 136 | CCOC(=O)c1cc2c(nc1COc1ccc(C(=O)O)cc1)CCCCC2
54 | 161 to 163 | COc1ccc(N2CCN(c3c(C)c(C)c4c(c3C)CC(C)(CC#N)O4)CC2)cc1 (stereo not drawn)
55 | 59 | CCOC(=O)c1ccc(C=O)cn1
56 | 82 to 83 | Oc1c(C2=CCCCC2)ccc2ccccc12
57 | 109 to 113 | CCCCCCC(C)OS(=O)(=O)NC(=O)Nc1c(C(C)C)cccc1C(C)C (stereo not drawn)
58 | 161 | COC[C@@H]1CC(c2ccc(-c3ccc(N4C[C@H](Cn5ccnn5)OC4=O)cc3F)cn2)=NO1
59 | 156 | CCOC(=O)C1=C(N)N=C(SCC)C(C(=O)OCC)C1c1ccncc1 (stereo not drawn)
60 | > 250 | CN1CC[C@@H]2CC(=O)c3cc(-c4ccccc4)ccc3[C@@H]2C1 (relative stereo)
61 | 167 to 169 | CSCc1cn(C)c2cc(F)ccc2c1=O
62 | 202 to 204 | CCC(C=O)c1ccc(S(C)(=O)=O)cc1 (stereo not drawn)
63 | 135 to 136 | COc1ccc2[nH]cc(CCCNCC3COc4ccccc4O3)c2c1 (stereo not drawn)
64 | 206 | Cc1cccc(NC(=O)NCC(=O)N(CC(=O)Oc2ccccc2)c2ccccc2)c1
65 | 55 to 56 | CCOC(=O)C(Cc1cccc(OCC(F)(F)C(F)F)c1)C(=O)c1ccc(F)cc1 (stereo not drawn)
66 | 185 to 186 | C#CCOc1ccc2c(C)cc(=O)oc2c1C(=O)C=Cc1ccc(F)cc1
67 | 124 | CCCCCCCCOc1ccc(-c2ccc(C(C)O)cc2)cc1 (single isomer, unassigned; (-))
68 | 90 | CCN(C(=O)n1nnc2cc(C)cc(C)c21)c1ccccc1
69 | 79 to 82 | COC(=O)c1cccc(CN2C(=O)N(c3ccccc3Br)Cc3cnc(Nc4ccccc4)nc32)c1
70 | 198 to 200 | COc1ccc2c(C(F)(F)F)c(CC(=O)O)c(=O)oc2c1
71 | 167 to 171 | COC(=O)c1cccc(CN2CCOc3ccc(N)cc32)c1
72 | > 260 | CC(=O)Nc1nc(N)nc(C2CCC(c3ccccc3)CC2)n1 (stereo not drawn)
73 | 120 to 121 | Cc1oc(-c2ccccc2)nc1COc1ccc(CCCC2OC(=O)NC2=O)cc1OC(C)C (stereo not drawn)
74 | 106 to 108 | CCN1C(=O)C(C)(C)C(=O)N(C)c2cc(CN(CCn3ccc4oc(C)cc4c3=O)Cc3cncn3C)ccc21

Row | melting point [°C] | SMILES
75 | 46 to 49 | CC(C)(C)c1ccc(CC(=O)CCCl)cc1
76 | 127 to 128 | COc1ccc(CCc2cc3cc(C#N)ccc3o2)c(CC(=O)OCc2ccccc2)c1
77 | 142 to 144 | CCCCCS(=O)(=O)NC(=O)/C=C/c1ccc(OC(C)C)cc1Oc1ncc(C(F)(F)F)cc1Cl
78 | 162 | COC(=O)c1nc(C)c(-c2ccccc2)nc1N
79 | 124 | COC(=O)C(c1ccccc1)C1CCN(c2ccc([N+](=O)[O-])cc2)CC1 (stereo not drawn)
80 | 195 to 196 | CC(=O)Oc1ccccc1Cn1nnnc1-c1cccc(Cl)c1Cl
81 | 231 to 233 | CC1(C)Oc2ccc(C#N)cc2[C@@H](NC(=O)NC(=O)C(Cl)(Cl)Cl)[C@@H]1O (relative stereo)
82 | 309 to 310 | CCn1c(=O)c2cc(O)c(O)cc2c2cc(O)c(O)cc21
83 | 88 to 91 | COc1ccc(C2(O)CCCCC2=O)c(OC)c1OC (stereo not drawn)
84 | 56 to 57 | CCc1cc(Cc2cc(CC)c(N=C=O)c(CC)c2)cc(CC)c1N=C=O
85 | 97 to 99 | COCc1c(-c2ccncc2)[nH]c(-c2ccncc2)c1C(=O)OC
86 | 189 to 190 | CCCCS(=O)(=O)Nc1ccc(Oc2cc(C)cc3cccnc23)cc1
87 | 171 to 172 | CC(=S)NC[C@H]1CN(c2ccc(N3CCC(=C(C)C#N)CC3)c(F)c2)C(=O)O1
88 | 95 to 97 | CCCCCN1Cc2cc(C)ccc2CCC1=O
89 | 90 to 91 | CC1Cc2cc(C#N)ccc2C1=O (stereo not drawn)
90 | 76 to 81 | COC(=O)c1cc(S(C)(=O)=O)ccc1OCC(C)C
91 | 152 to 154 | Cc1ccnc(Cl)c1C(=O)O
92 | 135 to 136 | CCCCCCCN(CCCCCSc1nc(-c2ccccc2)c(-c2ccccc2)[nH]1)C(=N)Nc1ccccc1
93 | 78 to 80 | CON(C)C(=O)[C@H]1CCn2c(cc3ccccc32)C1
94 | 119 to 121 | CCCCCc1nc2c(N)nc3ccccc3c2s1
95 | 214 to 216 | CC(=O)N1CC(C)(C)c2cc3nc[nH]c3cc21
96 | 134 to 136 | COc1cccc(CSc2c(O)cc(-c3ccccc3)oc2=O)c1
97 | 146 | COc1cc(NCCN2CCC(Nc3nc4ccccc4n3Cc3ccc(F)cc3)CC2)ncn1
98 | 205 to 206 | CN1C(=O)CN(c2ccc(F)cc2)NC1=O
